Where two headings read alike, the source gives them in different places. Starred links: 1 amine or outer side, 2 acyl side, 3 side chain; linkers in the order of their positions; H or OH if unused. Non-standard residues stand in square brackets, D forms with d. Residues, ends and D or L forms follow the SMILES beside them. Groups on a side chain read outwards from the residue. *: point of attachment. C18 diacid = O=C(O)CCCCCCCCCCCCCCCCC(=O)*; αMePhe(2-F) = C[C@](N)(Cc1ccccc1F)C(=O)O; γGlu = O=C(O)[C@H](CCC(=O)[*:2])N[*:1]; αMe4Pal = C[C@](N)(Cc1ccncc1)C(=O)O; αMeY = C[C@](N)(Cc1ccc(O)cc1)C(=O)O; 4Pal = N[C@@H](Cc1ccncc1)C(=O)O; αMeL = CC(C)C[C@](C)(N)C(=O)O; αMeS = C[C@](N)(CO)C(=O)O; Orn = NCCC[C@H](N)C(=O)O; AEEA = NCCOCCOCC(=O)O; Aib = CC(C)(N)C(=O)O
Columns and labels:
[1] = biological target: T1, hGIPR (Homo sapiens, UniProt P48546); experiment: Functional cAMP activity in the presence of 1% HSA; assay type: cell-based; details: read-out: cAMP Rel EC50, hGIPR
T1 sequence (P48546 22-466): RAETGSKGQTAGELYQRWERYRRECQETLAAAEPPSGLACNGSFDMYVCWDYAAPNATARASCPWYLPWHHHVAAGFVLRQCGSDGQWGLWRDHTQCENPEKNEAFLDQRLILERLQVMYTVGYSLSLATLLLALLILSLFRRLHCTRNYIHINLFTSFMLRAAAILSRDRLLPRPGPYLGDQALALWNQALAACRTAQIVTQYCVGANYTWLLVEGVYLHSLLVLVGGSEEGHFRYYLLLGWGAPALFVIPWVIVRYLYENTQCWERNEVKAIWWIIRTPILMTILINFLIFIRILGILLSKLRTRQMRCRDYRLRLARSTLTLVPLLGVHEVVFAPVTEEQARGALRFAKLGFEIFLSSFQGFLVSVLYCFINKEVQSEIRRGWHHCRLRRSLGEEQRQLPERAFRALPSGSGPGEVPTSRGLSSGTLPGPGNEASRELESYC

[2] = biological target: T2, hGLP-1R (Homo sapiens, UniProt P43220); experiment: Functional cAMP activity in the presence of 1% HSA; assay type: cell-based; details: read-out: cAMP Rel EC50, hGLP-1R
T2 sequence (P43220 24-463): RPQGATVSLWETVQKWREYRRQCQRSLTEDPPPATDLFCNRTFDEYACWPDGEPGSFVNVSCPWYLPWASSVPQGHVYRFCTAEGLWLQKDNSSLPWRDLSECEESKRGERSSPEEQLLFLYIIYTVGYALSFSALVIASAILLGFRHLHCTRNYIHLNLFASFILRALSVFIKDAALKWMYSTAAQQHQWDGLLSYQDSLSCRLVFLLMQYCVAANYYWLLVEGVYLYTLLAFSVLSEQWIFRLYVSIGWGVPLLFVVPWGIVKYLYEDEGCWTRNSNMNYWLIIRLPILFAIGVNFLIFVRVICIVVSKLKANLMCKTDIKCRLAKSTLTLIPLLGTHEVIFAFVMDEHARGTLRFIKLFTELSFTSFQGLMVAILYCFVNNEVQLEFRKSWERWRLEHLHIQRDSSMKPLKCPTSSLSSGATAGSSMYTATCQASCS

[3] = biological target: human GcgR (Homo sapiens, UniProt P47871); experiment: Functional cAMP activity in the presence of 1% HSA; assay type: cell-based; details: read-out: cAMP Rel EC50, hGcgR
Chain of human GcgR (P47871 26-477): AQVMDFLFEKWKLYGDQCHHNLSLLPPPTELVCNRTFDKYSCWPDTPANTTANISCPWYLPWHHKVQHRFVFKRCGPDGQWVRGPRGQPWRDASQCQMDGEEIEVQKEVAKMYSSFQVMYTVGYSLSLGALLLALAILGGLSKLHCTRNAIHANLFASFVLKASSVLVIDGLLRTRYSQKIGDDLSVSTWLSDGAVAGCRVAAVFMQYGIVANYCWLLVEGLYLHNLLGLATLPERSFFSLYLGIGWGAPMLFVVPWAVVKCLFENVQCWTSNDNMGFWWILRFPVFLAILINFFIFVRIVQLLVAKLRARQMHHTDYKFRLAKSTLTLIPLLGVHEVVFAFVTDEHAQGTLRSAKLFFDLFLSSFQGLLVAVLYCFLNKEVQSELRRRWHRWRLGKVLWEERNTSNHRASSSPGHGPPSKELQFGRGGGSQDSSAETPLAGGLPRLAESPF

[4] = biological target: T1, hGIPR; experiment: Functional cAMP activation in the presence of 0.1% casein (no HSA); assay type: cell-based; details: read-out: Relative cAMP EC50, hGIPR;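 on Relative cAMP EC50, hGIPR: intracellular cAMP rise after 30 min at 37 °C read by HTRF against a standard curve, scaled between buffer alone (0%) and top control ligand concentration (100%), four-parameter fit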;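 on Relative cAMP EC50, hGLP-1R: intracellular cAMP rise after 30 min at 37 °C read by HTRF, normalized between buffer only (0%) and maximal control ligand (100%), four-parameter variable-slope fit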;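 on Relative cAMP EC50, hGcgR: intracellular cAMP rise after 30 min at 37 °C, read by HTRF against a cAMP standard curve, scaled from buffer only (0%) to maximal control ligand response (100%)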
[5] = biological target: T2, hGLP-1R; experiment: as above; assay type: cell-based; details: read-out: Relative cAMP EC50, hGLP-1R
[6] = biological target: hGcgR (Homo sapiens, UniProt P47871); experiment: as above; assay type: cell-based; details: read-out: Relative cAMP EC50, hGcgR;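 further: intracellular cAMP rise after 30 min at 37 °C, read by HTRF against a cAMP standard curve, scaled from buffer only (0%) to maximal control ligand response (100%)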
Chain of hGcgR (P47871 26-477): as above

[7] = in vivo; parameters: species or system cynomolgus monkeys; details: both sexes, cynomolgus monkey, iv, 10 nmol/kg
Description: (§1) A study is designed to evaluate the oral bioavailability of Example polypeptides in cynomolgus monkeys. […] Standards and controls are prepared in cynomolgus monkey plasma, and any dilutions required to bring samples into the quantitative range are also performed in control cynomolgus monkey plasma. To control assay variability, an internal standard (IS) is added to all the standards and samples. The Examples and IS are extracted from 100% monkey plasma (50 μL) by protein precipitation using isopropyl alcohol and methanol (50:50 v/v). The samples are then centrifuged (3000 rpm for 10 minutes) and the supernatant is transferred to a Siricco Protein Precipitation Plate. The samples are loaded on a Sep-Pak tC18 SPE microelution plate that is conditioned with 2% formic acid in acetonitrile and water. The compounds are then washed with 2% formic acid in water and eluted using 2% formic acid in acetonitrile into a plate containing 5× Invitrosol and 1% formic acid in water prior to injecting an aliquot (10 μL) on to Xselect CSH C18, 3.5 μm, 2.1×20 mm for LC/MS analysis.
Blood samples are collected over 504 hours. Plasma is harvested from blood samples by centrifugation and stored frozen (−70° C.) until analysis. Plasma concentrations of the molecules are detected using the bioanalytical method described above.

[8] = in vivo; parameters: species or system cynomolgus monkeys; details: both sexes, cynomolgus monkey, po; for bioavailability: 10 mg; for AUC(0-inf) / CL/F / Cmax / Tmax / half-life: 300 mg
Description: as §1
[…] Blood samples are collected up to 504 hours post-dose. Plasma is harvested from blood samples by centrifugation and stored frozen (−70° C.) until analysis. Plasma concentrations of the molecules are detected using the bioanalytical method described above.

[9] = biological target: human GLP1-R (Homo sapiens, UniProt P43220); experiment: GLP1-R internalization assay in HEK293 cells; assay type: cell-based
Chain of human GLP1-R (P43220 24-463): as the sequence (P43220 24-463) above

[10] = Body weight in diet-induced obese C57BL/6 mice; assay type: in vivo; details: 10 nmol/kg SC QD, 7 days, percent of starting weight, DIO mice, mean ± SEM n=5
Outline: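 Male C57BL/6 DIO mice (41-50 g, 5 per group, randomized by weight) on calorie-rich diet received subcutaneous doses 30-90 min before dark onset, QD or Q3D for 9-16 days. Body weight measured daily, expressed as percent of starting weight, mean±SEM.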

[11] = test system: Intestinal organoid from Göttingen minipig jejunum tissue, 2D monolayer; experiment: Cell based in vitro permeability (Papp) assay; assay type: in vitro ADME
Outline: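 2D monolayers derived from Göttingen minipig jejunal organoids on transwell inserts. Basal samples collected at 20 min in the presence of C10. Peptide in apical and basal compartments quantified by LC/MS to give Papp.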

[12] = Pepsin stability assay in simulated gastric fluid; assay type: in vitro ADME; details: pH 1.2, % Intact (SD)
Description: A pepsin stability assay is utilized to determine the relative stability of Example polypeptides in a simulated gastric proteolytic environment. […] The relative amount of intact peptide is quantified by mass spectrometry (MS). […] The examples were dissolved in 50 mM Tris buffer pH 8.0 at a concentration of 10 mg/mL as a stock solution. Pepsin A was reconstituted in SGF at 10 mg/mL. […] The example peptide and pepsin solutions were then incubated at 37° C. in a shaking incubator set at 100 rpm. Samples (25 μL) were withdrawn at different time intervals and quenched with 100 mM ammonium bicarbonate pH 9 (50 μL) to stop proteolytic activity. All samples were centrifuged, and the supernatants were analyzed by LC/MS to determine the remaining intact peptide.

[13] = in the presence of 0.1% casein (no HSA), geometric mean

EC50 [1] | EC50 [2] | EC50 [3] | EC50 [4] | EC50 [5] | EC50 [6] | remaining at 0.25 h, 0.4 mg/mL [12] | remaining at 0.5 h, 0.4 mg/mL [12] | remaining at 1 h, 0.4 mg/mL [12] | Molecule | also measured
0.881 nM | 11.7 nM | 333 nM | 0.00918 nM | 0.226 nM | 2.86 nM | 78.8% | 68.9% | 60.1% | CC[C@H](C)[C@H](NC(=O)[C@H](CC(C)C)NC(=O)[C@](C)(Cc1ccc(O)cc1)NC(=O)[C@@H](CCC(=O)O)NC(=O)[C@@H](NC(=O)[C@H](Cc1ccccc1)NC(=O)[C@@H](NC(=O)C(C)(C)NC(=O)[C@H](CCC(N)=O)NC(=O)[C@H](C)NC(=O)[C@H](CCCCNC(=O)COCCOCCNC(=O)CC[C@H](NC(=O)CCCCCCCCCCCCCCCCC(=O)O)C(=O)O)NC(=O)[C@H](CCCN)NC(=O)[C@H](CC(=O)O)NC(=O)[C@H](CC(C)C)NC(=O)[C@](C)(CC(C)C)NC(=O)[C@@H](NC(=O)[C@](C)(CO)NC(=O)[C@H](Cc1ccncc1)NC(=O)[C@H](CC(=O)O)NC(=O)[C@H](CO)NC(=O)[C@@H](NC(=O)[C@](C)(Cc1ccccc1F)NC(=O)[C@@H](NC(=O)CNC(=O)[C@H](CCC(N)=O)NC(=O)C(C)(C)NC(=O)[C@@H](N)Cc1ccc(O)cc1)[C@@H](C)O)[C@@H](C)O)[C@@H](C)CC)[C@@H](C)O)[C@@H](C)CC)C(=O)N[C@@H](CCC(=O)O)C(=O)NCC(=O)NCC(=O)N1CCC[C@H]1C(=O)N[C@@H](CO)C(=O)N[C@@H](CO)C(=O)NCC(=O)N[C@@H](CCC(=O)O)C(=O)N1CCC[C@H]1C(=O)N1CCC[C@H]1C(=O)N1CCC[C@H]1C(=O)N[C@@H](CCC(=O)O)C(N)=O [Example 457] (H-Y[Aib]QGT[αMePhe(2-F)]TSD[4Pal][αMeS]I[αMeL]LD[Orn]K([AEEA-γGlu-C18 diacid])AQ[Aib]TFI[dE][αMeY]LIEGGPSSGEPPPE-NH2) | 
3.9 nM | 50.3 nM | 494 nM | 0.0375 nM | 0.623 nM | 4.04 nM | 10.6% | 1% | 0% | H-Y[Aib]QGT[αMePhe(2-F)]TSD[4Pal]SI[αMeL]LD[Orn]K([AEEA-γGlu-C18 diacid])AQ[αMe4Pal][Orn]FI[dE]YLIEGGPSSGEPPPEGT-NH2 [Example 500] | 

The remaining lines, values behind:

Molecule | EC50 [1] | EC50 [2] | EC50 [3] | EC50 [4] | EC50 [5] | EC50 [6] | remaining at 0.25 h, 0.4 mg/mL [12] | remaining at 0.5 h, 0.4 mg/mL [12] | remaining at 1 h, 0.4 mg/mL [12] | also measured
H-Y[Aib]QGTFTSD[4Pal]SQ[αMeL]LDKK([γGlu-γGlu-C18 diacid])AQ[αMe4Pal]AFIEYLIAGGPSSGAPPPSGE-NH2 [Example 883] | 9.41 nM | 120 nM | 578 nM |  |  |  |  |  |  | EC50 [4, 13]: 0.0779 nM; EC50 [5, 13]: 1.05 nM; EC50 [6, 13]: 4.02 nM; AUC(0-inf) [7]: 8.69 ± 0.623 µM·h; clearance [7]: 0.00115 L/h/kg; half-life [7]: 62.8 ± 53.9 h; bioavailability [8]: 0.3%; AUC(0-inf) [8]: 1.28 µM·h; CL/F [8]: 0.666 L/h/kg; Cmax [8]: 0.0436 µM; Tmax [8]: 2 h; half-life [8]: 29 h; EC50 ([9]; HEK293 cells expressing SNAP-GLP-1R, read-out: GLP1R Internalization EC50): 23.9 nM; Internalization % TOP ([9]; normalized to maximum concentration of GLP-1 (100%)): 77.1%
CC[C@H](C)[C@H](NC(=O)[C@H](CC(C)C)NC(=O)[C@](C)(Cc1ccc(O)cc1)NC(=O)[C@@H](CCC(=O)O)NC(=O)[C@@H](NC(=O)[C@H](Cc1ccccc1)NC(=O)[C@H](CCC(=O)O)NC(=O)[C@](C)(Cc1ccncc1)NC(=O)[C@H](CCC(N)=O)NC(=O)[C@H](C)NC(=O)[C@H](CCCCNC(=O)CC[C@H](NC(=O)CC[C@H](NC(=O)CCCCCCCCCCCCCCCCC(=O)O)C(=O)O)C(=O)O)NC(=O)[C@H](CCCN)NC(=O)[C@H](CC(=O)O)NC(=O)[C@H](CC(C)C)NC(=O)[C@](C)(CC(C)C)NC(=O)[C@@H](NC(=O)[C@](C)(CO)NC(=O)[C@H](Cc1ccncc1)NC(=O)[C@H](CC(=O)O)NC(=O)[C@H](CO)NC(=O)[C@@H](NC(=O)[C@](C)(Cc1ccccc1F)NC(=O)[C@@H](NC(=O)CNC(=O)[C@H](CCC(N)=O)NC(=O)C(C)(C)NC(=O)[C@@H](N)Cc1ccc(O)cc1)[C@@H](C)O)[C@@H](C)O)[C@@H](C)CC)[C@@H](C)CC)C(=O)N[C@@H](CCC(=O)O)C(=O)NCC(=O)NCC(=O)N1CCC[C@H]1C(=O)N[C@@H](CO)C(=O)N[C@@H](CO)C(=O)NCC(=O)N[C@@H](C)C(=O)N1CCC[C@H]1C(=O)N1CCC[C@H]1C(=O)N1CCC[C@H]1C(=O)N[C@@H](CO)C(=O)NCC(=O)N[C@@H](CO)C(N)=O [Example 700] | 0.397 nM | 20 nM | 132 nM | 0.00758 nM | 0.245 nM | 1.31 nM | 89.9% | 106% | 98.9% | Body weight (%) [10]: 75.9 ± 3.77 %; Relative Papp (Compared to internal standard) [11]: 0.29
H-Y[Aib]QGTFTSD[4Pal]SQ[αMeL]LD[Orn]K([γGlu-γGlu-C18 diacid])AQ[αMe4Pal]AFIE[αMeY]LIEGGPSSGEPPPSGSEE-NH2 [Example 1027] | 58.1 nM | 252 nM | 1470 nM |  |  |  |  |  |  | EC50 [4, 13]: 0.208 nM; EC50 [5, 13]: 1.23 nM; EC50 [6, 13]: 4.99 nM; AUC(0-inf) [7]: 8.57 ± 1.55 µM·h; clearance [7]: 0.0012 L/h/kg; half-life [7]: 76.4 ± 31.4 h; bioavailability [8]: 1.2%; AUC(0-inf) [8]: 5.07 µM·h; CL/F [8]: 0.166 L/h/kg; Cmax [8]: 0.135 µM; Tmax [8]: 2.5 h; half-life [8]: 55.7 h
H-Y[Aib]QGT[αMePhe(2-F)]TSD[4Pal]SI[αMeL]LD[Orn]K([AEEA-γGlu-C18 diacid])AQ[αMe4Pal][Orn]FIE[αMeY]LIEGGPSSGEPPPEGT-NH2 [Example 505] | 2.1 nM | 39 nM | 92 nM | 0.00707 nM | 0.205 nM | 0.445 nM | 91.6% | 78.9% | 53.5% | 
H-Y[Aib]QGT[αMePhe(2-F)]TSD[4Pal][αMeS]I[αMeL]LD[Orn]K([γGlu-γGlu-C18 diacid])AQ[αMe4Pal]EFI[dE][αMeY]LVEGGPSSGAPPPSGS-NH2 [Example 696] | 0.53 nM | 19.1 nM | 173 nM | 0.00688 nM | 0.233 nM | 1.75 nM | 102% | 107% |  | Relative Papp (Compared to internal standard) [11]: 0.77
